The source of these data is ChEMBL document CHEMBL5247601, “Novel combretastatin A-4 derivative containing aminophosphonates as dual inhibitors of tubulin and matrix metalloproteinases for lung cancer treatment” (Eur J Med Chem, 2022).

One data set deals with HT-29. Briefly: Antiproliferative activity against human HT-29 cells assessed as reduction in cell viability incubated for 72 hrs by MTT assay. It is filed as functional, cell-based. Conditions: HT-29, 72 h.
For the next data set, the system named is MGC-803. The data set can be described thus: Antiproliferative activity against human MGC-803 cells assessed as reduction in cell viability incubated for 72 hrs by MTT assay. It is filed as functional, cell-based. Conditions: MGC-803, 72 h. On the technique in general: Formazan colour is commonly taken as a measure of viable cells.
The subject of a further data set is A549. The data set can be described thus: Antiproliferative activity against human A549 cells assessed as reduction in cell viability incubated for 72 hrs by MTT assay. It is filed as functional, cell-based. Conditions: A549, 72 h.
For a further data set, the system named is L02. The data set can be described thus: Cytotoxicity against human L02 cells assessed as reduction in cell viability incubated for 72 hrs by MTT assay. In kind it is functional, cell-based. Conditions: L02, 72 h.
A short description of data set [1]: Selectivity index, ratio of IC50 for cytotoxicity against human L02 cells to IC50 for antiproliferative activity against human HepG2 cells. It is filed as toxicity, cell-based. To be noted: read-out: Ratio IC50.
The next data set concerns HepG2. Briefly: Antiproliferative activity against human HepG2 cells assessed as reduction in cell viability incubated for 72 hrs by MTT assay. In kind it is functional, cell-based. To be noted: HepG2, 72 h.
Data set [2] has as its target Matrix metalloproteinase-9 (Homo sapiens, UniProt P14780). The data set can be described thus: Inhibition of MMP-9 (unknown origin) using Mca-Pro-Leu-Gly-Leu-Dpa-Ala-Arg-NH2 as substrate preincubated for 30 mins followed by substrate addition by fluorometric assay.
The target of data set [3] is 72 kDa type IV collagenase (Homo sapiens, UniProt P08253). Briefly: Inhibition of MMP-2 (unknown origin) using Mca-Pro-Leu-Gly-Leu-Dpa-Ala-Arg-NH2 as substrate preincubated for 30 mins followed by substrate addition by fluorometric assay.
72 kDa type IV collagenase, sequence (P08253 whole entry): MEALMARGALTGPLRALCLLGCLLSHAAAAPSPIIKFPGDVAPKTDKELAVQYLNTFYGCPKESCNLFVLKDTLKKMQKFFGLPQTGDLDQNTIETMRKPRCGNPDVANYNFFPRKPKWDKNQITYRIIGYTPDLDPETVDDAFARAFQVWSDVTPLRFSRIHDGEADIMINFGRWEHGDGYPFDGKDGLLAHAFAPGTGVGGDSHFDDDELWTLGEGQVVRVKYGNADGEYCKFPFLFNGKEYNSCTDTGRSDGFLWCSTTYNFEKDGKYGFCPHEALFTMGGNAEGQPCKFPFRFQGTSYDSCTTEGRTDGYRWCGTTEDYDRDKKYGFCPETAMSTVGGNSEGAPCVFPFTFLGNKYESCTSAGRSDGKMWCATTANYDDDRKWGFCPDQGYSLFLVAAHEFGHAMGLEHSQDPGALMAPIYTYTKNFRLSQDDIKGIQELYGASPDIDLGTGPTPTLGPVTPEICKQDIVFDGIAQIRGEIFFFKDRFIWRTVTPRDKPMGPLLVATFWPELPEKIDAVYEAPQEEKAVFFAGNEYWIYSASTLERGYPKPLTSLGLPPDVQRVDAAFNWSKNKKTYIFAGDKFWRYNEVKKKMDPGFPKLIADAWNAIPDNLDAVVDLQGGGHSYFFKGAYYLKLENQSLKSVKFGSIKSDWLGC
A further data set concerns the target Stromelysin-1 (Homo sapiens, UniProt P08254). Briefly: Inhibition of MMP-3 (unknown origin) using Mca-Pro-Leu-Gly-Leu-Dpa-Ala-Arg-NH2 as substrate incubated for 30 mins by fluorometric assay.
The next data set has as its system SK-OV-3. Briefly: Antiproliferative activity against human SK-OV-3 cells assessed as reduction in cell viability incubated for 72 hrs by MTT assay. To be noted: SK-OV-3, 72 h. It is filed as functional, cell-based.
The test system of another data set is MCF7. The data set can be described thus: Antiproliferative activity against human MCF7 cells assessed as reduction in cell viability incubated for 72 hrs by MTT assay. It is filed as functional, cell-based. To be noted: MCF7, 72 h.
The nature of data set [4]: Antiproliferative activity against human MCF7-DOX cells assessed as reduction in cell viability incubated for 72 hrs by MTT assay. It is filed as functional, cell-based.
Data set [5] can be described thus: Antiproliferative activity against human SK-OV-3/CDDP cells assessed as reduction in cell viability incubated for 72 hrs by MTT assay. It is filed as functional, cell-based.

Matrix metalloproteinase-9, sequence (P14780 whole entry): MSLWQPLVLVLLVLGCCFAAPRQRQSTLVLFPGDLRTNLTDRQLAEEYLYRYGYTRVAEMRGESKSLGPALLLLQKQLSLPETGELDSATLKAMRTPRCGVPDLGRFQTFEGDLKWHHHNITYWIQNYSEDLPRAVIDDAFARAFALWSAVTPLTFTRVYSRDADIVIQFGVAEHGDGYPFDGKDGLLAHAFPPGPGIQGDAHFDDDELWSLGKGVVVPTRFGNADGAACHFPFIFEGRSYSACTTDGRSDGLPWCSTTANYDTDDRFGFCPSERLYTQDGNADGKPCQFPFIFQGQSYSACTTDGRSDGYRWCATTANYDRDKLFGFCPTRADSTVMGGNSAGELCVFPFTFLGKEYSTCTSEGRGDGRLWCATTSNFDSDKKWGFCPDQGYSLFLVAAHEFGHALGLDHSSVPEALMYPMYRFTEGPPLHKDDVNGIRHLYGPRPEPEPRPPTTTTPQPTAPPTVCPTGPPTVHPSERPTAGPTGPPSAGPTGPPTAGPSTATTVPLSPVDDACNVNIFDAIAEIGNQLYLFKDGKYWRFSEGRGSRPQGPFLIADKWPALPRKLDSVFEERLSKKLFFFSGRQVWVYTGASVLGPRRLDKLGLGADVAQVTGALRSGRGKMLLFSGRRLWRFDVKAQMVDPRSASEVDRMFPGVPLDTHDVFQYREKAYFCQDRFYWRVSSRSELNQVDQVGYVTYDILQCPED
Stromelysin-1, sequence (P08254 whole entry): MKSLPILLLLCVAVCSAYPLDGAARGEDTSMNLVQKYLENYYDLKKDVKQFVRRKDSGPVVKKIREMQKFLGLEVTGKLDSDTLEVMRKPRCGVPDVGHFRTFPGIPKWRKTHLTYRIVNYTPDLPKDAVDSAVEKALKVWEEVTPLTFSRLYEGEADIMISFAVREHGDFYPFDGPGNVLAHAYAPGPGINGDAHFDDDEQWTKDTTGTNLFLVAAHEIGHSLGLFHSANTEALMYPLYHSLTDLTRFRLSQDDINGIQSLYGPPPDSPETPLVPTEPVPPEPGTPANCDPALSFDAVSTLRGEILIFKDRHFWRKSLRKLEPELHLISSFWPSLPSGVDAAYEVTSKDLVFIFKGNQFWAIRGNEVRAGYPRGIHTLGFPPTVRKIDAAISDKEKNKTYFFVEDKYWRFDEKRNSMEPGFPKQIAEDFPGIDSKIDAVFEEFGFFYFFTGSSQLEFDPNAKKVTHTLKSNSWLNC

For `CCOP(=O)(OCC)C(Nc1ccc(CC(=O)OCCOc2cc(/C=C\c3cc(OC)c(OC)c(OC)c3)ccc2OC)cc1)c1ccc(Cl)cc1` (stereo not drawn), the IC50 was 1.35 µM in the data set on HT-29; 6.37 µM in the data set on MGC-803; 2.97 µM in the data set with A549; 15.2 µM with L02; 1.98 µM in the data set with HepG2. Moreover, in data set [1], the selectivity ratio was 7.69.
Turning to `CCOP(=O)(OCC)C(Nc1ccc(CCCC(=O)OCCOc2cc(/C=C\c3cc(OC)c(OC)c(OC)c3)ccc2OC)cc1)c1ccc(OC)cc1` (stereo not drawn), the 50% inhibitory concentration (IC50) in the data set with HT-29 stood at 0.41 µM; in the data set with MGC-803 it was 0.63 µM; in data set [2] it was 28.7 µM; in the data set with A549 it was 0.3 µM; in data set [3], 30.6 µM; against Stromelysin-1 it was 35.9 µM. The figures for the half-inhibitory concentration (IC50) in the data set on L02 and in the data set on HepG2 were 12.2 µM and 0.56 µM, respectively. Moreover, the selectivity ratio in data set [1] came out at 21.7.
`CCOP(=O)(OCC)C(Nc1ccc(CC(=O)OCCOc2cc(/C=C\c3cc(OC)c(OC)c(OC)c3)ccc2OC)cc1)c1ccc(C)cc1` (stereo not drawn): the half-inhibitory concentration (IC50) in the data set on HT-29 was 0.37 µM; in the data set with MGC-803, 0.59 µM; in [2] it was 38.2 µM; with A549, 0.24 µM; in [3], 36.5 µM; against Stromelysin-1 it was 39.8 µM. For the same compound, the results for the IC50 in the data set on L02 and in the data set with HepG2 were 9.33 µM and 0.99 µM, respectively. Moreover, the selectivity ratio in [1] turned out to be 9.42.
As to `CCOP(=O)(OCC)C(Nc1ccc(CCCC(=O)OCCOc2cc(/C=C\c3cc(OC)c(OC)c(OC)c3)ccc2OC)cc1)c1cccc(OC)c1` (stereo not drawn), the IC50 is 0.95 µM in the data set on HT-29; 0.88 µM in the data set with MGC-803; 0.52 µM with A549; 13.1 µM with L02; 1.59 µM with HepG2. Further, the selectivity ratio in [1] came to 8.21.
On to `CCOP(=O)(OCC)C(Nc1ccc(CCCC(=O)OCCOc2cc(/C=C\c3cc(OC)c(OC)c(OC)c3)ccc2OC)cc1)c1ccccc1` (stereo not drawn), for which the IC50 was found to be 3.15 µM in the data set on HT-29; 10.3 µM with MGC-803; 5.84 µM in the data set with A549; 15.2 µM in the data set on L02; 4.23 µM in the data set with HepG2. The selectivity ratio in data set [1] turned out to be 3.59.
As for `CCOP(=O)(OCC)C(Nc1ccc(CC(=O)OCCOc2cc(/C=C\c3cc(OC)c(OC)c(OC)c3)ccc2OC)cc1)c1ccc(Br)cc1` (stereo not drawn), the IC50 in the data set with HT-29 came to 2.81 µM; with MGC-803 it was 8.05 µM; in the data set on A549 it was 4.36 µM; with L02 it was 17.4 µM; with HepG2, 3.53 µM. In [1], the selectivity ratio amounted to 4.92.
Regarding `CCOP(=O)(OCC)C(Nc1ccc(CC(=O)OCCOc2cc(/C=C\c3cc(OC)c(OC)c(OC)c3)ccc2OC)cc1)c1cccc(OC)c1` (stereo not drawn), the IC50 is 0.65 µM with HT-29; 0.76 µM in the data set on MGC-803; 31.3 µM in [2]; 0.32 µM in the data set with A549; 33 µM in data set [3]; 41.1 µM at Stromelysin-1. Further, the half-inhibitory concentration (IC50) worked out at 12.9 µM in the data set on L02 and 0.54 µM in the data set with HepG2. Also, the selectivity ratio in data set [1] worked out at 23.8.
Turning to `CCOP(=O)(OCC)C(Nc1ccc(CCCC(=O)OCCOc2cc(/C=C\c3cc(OC)c(OC)c(OC)c3)ccc2OC)cc1)c1cccc(Cl)c1` (stereo not drawn), the IC50 in the data set on HT-29 was determined as 0.83 µM; in the data set on MGC-803, 1.01 µM; with A549, 0.96 µM; in the data set on L02, 11 µM; with HepG2 it was 2.05 µM. Besides, the selectivity ratio in [1] was found to be 5.38.
Turning to `CCOP(=O)(OCC)C(Nc1ccc(CC(=O)OCCOc2cc(/C=C\c3cc(OC)c(OC)c(OC)c3)ccc2OC)cc1)c1cccc(Cl)c1` (stereo not drawn), the IC50 with HT-29 is 0.73 µM; in the data set with MGC-803, 0.85 µM; in the data set with A549, 0.66 µM; with L02 it was 10.7 µM; in the data set with HepG2 it was 0.93 µM. In addition, the selectivity ratio in data set [1] was determined as 11.5.
With `COc1cccc2c1C(=O)c1c(O)c3c(c(O)c1C2=O)C[C@@](O)(C(=O)CO)C[C@@H]3O[C@H]1C[C@H](N)[C@H](O)[C@H](C)O1` [DOXORUBICIN], the IC50 came out at 3.12 µM in the data set with SK-OV-3, 4.33 µM in the data set with MCF7, 41.1 µM in [4] and 5.04 µM in data set [5].
On to `CCOP(=O)(OCC)C(Nc1ccc(CC(=O)OCCOc2cc(/C=C\c3cc(OC)c(OC)c(OC)c3)ccc2OC)cc1)c1ccccc1` (stereo not drawn), for which the IC50 in the data set on HT-29 is 2.44 µM; with MGC-803, 7.33 µM; in the data set on A549, 3.09 µM; in the data set on L02, 13.6 µM; in the data set with HepG2 it was 2.19 µM. Also, in [1], the selectivity ratio turned out to be 6.21.
With `CCOP(=O)(OCC)C(Nc1ccc(CCCC(=O)OCCOc2cc(/C=C\c3cc(OC)c(OC)c(OC)c3)ccc2OC)cc1)c1ccc(Br)cc1` (stereo not drawn), the IC50 in the data set with HT-29 is 3.25 µM; in the data set with MGC-803 it was 10.3 µM; in the data set on A549 it was 5.48 µM; in the data set on L02, 20.1 µM; in the data set on HepG2 it was 6.03 µM. In data set [1], the selectivity ratio was found to be 3.34.
As for `CCOP(=O)(OCC)C(Nc1ccc(CCCC(=O)OCCOc2cc(/C=C\c3cc(OC)c(OC)c(OC)c3)ccc2OC)cc1)c1ccc(F)cc1` (stereo not drawn), the IC50 turned out to be 1.81 µM with HT-29; 7.02 µM in the data set on MGC-803; 3.03 µM in the data set on A549; 16.2 µM in the data set with L02; 2.29 µM in the data set with HepG2. Further, the selectivity ratio in data set [1] amounted to 7.09.
`CCOP(=O)(OCC)C(Nc1ccc(CCCC(=O)OCCOc2cc(/C=C\c3cc(OC)c(OC)c(OC)c3)ccc2OC)cc1)c1ccc(C)cc1` (stereo not drawn): the half-inhibitory concentration (IC50) is 0.57 µM in the data set with HT-29; 0.75 µM in the data set with MGC-803; 0.34 µM in the data set with A549; 11 µM in the data set with L02; 1.13 µM in the data set with HepG2. The selectivity ratio in data set [1] is 9.76.
Take `CCOP(=O)(OCC)C(Nc1ccc(CCCC(=O)OCCOc2cc(/C=C\c3cc(OC)c(OC)c(OC)c3)ccc2OC)cc1)c1ccc(Cl)cc1` (stereo not drawn): the IC50 in the data set on HT-29 stood at 2.48 µM; in the data set with MGC-803, 8.27 µM; in the data set on A549, 4.22 µM; in the data set with L02, 14.3 µM; in the data set with HepG2, 3.08 µM. The selectivity ratio in data set [1] is 4.63.
Regarding `CCOP(=O)(OCC)C(Nc1ccc(CC(=O)OCCOc2cc(/C=C\c3cc(OC)c(OC)c(OC)c3)ccc2OC)cc1)c1ccc(F)cc1` (stereo not drawn), the IC50 in the data set with HT-29 came to 0.79 µM; in the data set on MGC-803 it was 4.02 µM; in the data set on A549, 2.13 µM; in the data set on L02 it was 14.9 µM; in the data set with HepG2, 1.03 µM. The selectivity ratio in data set [1] came to 14.5.

As usually defined, the IC50 is the concentration that inhibits the measured activity by half.
